Measured values taken from PMC12549899 (Nature Communications, 2025).
Where “and” joins values, the source holds several entries; their conditions need not be identical. Identical values can stand only once. Like-named read-outs stand apart in the source and are kept apart here.

Target: T1, DrOTOP1 I565W (Danio rerio, UniProt Q7ZWK8, I565W)
T1 construct: A previously generated codon-optimized full-length DrOTOP1[8]; (UniProt: Q7ZWK8) construct; expressed in transfected cells; host or cells: HEK-293 (CRL-1573, ATCC)
T1 sequence (Q7ZWK8 1-586 I565W): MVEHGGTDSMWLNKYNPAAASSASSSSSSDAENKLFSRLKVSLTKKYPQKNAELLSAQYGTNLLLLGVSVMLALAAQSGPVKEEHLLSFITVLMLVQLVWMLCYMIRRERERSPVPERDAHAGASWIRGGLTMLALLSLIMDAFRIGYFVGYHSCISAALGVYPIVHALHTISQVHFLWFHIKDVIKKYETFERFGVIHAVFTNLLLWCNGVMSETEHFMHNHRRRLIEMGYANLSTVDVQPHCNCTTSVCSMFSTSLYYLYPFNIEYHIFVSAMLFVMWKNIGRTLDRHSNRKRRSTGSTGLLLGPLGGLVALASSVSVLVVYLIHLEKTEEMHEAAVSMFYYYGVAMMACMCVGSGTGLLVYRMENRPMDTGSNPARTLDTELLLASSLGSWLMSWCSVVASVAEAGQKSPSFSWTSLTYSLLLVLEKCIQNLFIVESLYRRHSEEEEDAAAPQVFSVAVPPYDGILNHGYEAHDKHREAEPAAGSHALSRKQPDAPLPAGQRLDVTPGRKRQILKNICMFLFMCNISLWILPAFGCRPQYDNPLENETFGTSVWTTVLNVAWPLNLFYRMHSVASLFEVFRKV
Assay: Whole-cell patch-clamp, inhibition of acid-evoked currents, DrOTOP1 I565W (C-domain pocket)
Assay type: cell-based, zebrafish (Danio rerio)
Set-up: key to inhibition of acid-evoked current, single cells: % inhibition = ((I2peak - I1)/I2peak)*100
Conditions: for LogAbsoluteIC50: concentration in uM
Source text: To experimentally verify whether C11 and C2.2 bind in the C-domain pocket as predicted, we used their docked poses to guide mutagenesis. The predicted interactions for C11 and C2.2 include π-stacking with F342 and Y422, potential H-bonding with Q542, N568, and R572 (Fig. 2J, K and Supplementary Fig. 5A), and hydrophobic packing. We generated single-residue mutants of these and other residues in DrOTOP1 that were expected to disrupt specific molecular interactions or to introduce a bulky tryptophan residue (W) to produce steric hindrance.
HEK-293 cells (CRL-1573, ATCC) were cultured in DMEM (Thermofisher 11995073) containing 10% fetal bovine serum (Life Technology 16000044) and Penicillin-Streptomycin (100 I.U./mL) and (100 µg/mL), respectively. Cells were transfected with WT DrOTOP1 or mutant DrOTOP1 channels in 35 mm petri dishes, with ~ 500 ng DNA and 2 μL TransIT-LT1 transfection reagent (Mirus Bio Corporation, Cat # MIR2300) following the manufacturer’s protocol. All constructs were subcloned into a pcDNA3.1 vector that adds an N-terminal fusion tag consisting of an octahistidine tag followed by eGFP, a Gly-Thr-Gly-Thr linker and a 3C protease cleavage site ([…]) followed by WT DrOTOP1, WT mOTOP1, WT hOTOP1, or mutated DrOTOP1. Point mutations were generated via In-Fusion Cloning (Takara) using single-stranded DNA primers generated through IDT and sequence confirmed by Sanger sequencing (GeneWiz).
Whole-cell patch-clamp recording was performed as previously described[6],[22],[25]. Recordings were made with an Axopatch 200B amplifier, digitized with a Digidata 1322a 16-bit data acquisition system, acquired with pClamp 8.2 and analyzed with Clampfit 10 (Molecular Devices). Recordings were sampled at 5 kHz and filtered at 1 kHz. Patch Pipettes with resistance of […] were fabricated from borosilicate glass, and only recordings with a giga-Ohm seal were used in analysis. Membrane potential was held at −80 mV for the duration of recordings. At the beginning of recordings and between, cells were washed with Tyrode’s solution (see below). Once a giga-Ohm seal was reached, cells were lifted and placed in front of microcapillary tubes controlled by a Fast-Step perfusion system (Warner Instruments) so that extracellular solutions could be rapidly exchanged during each experiment.
Standard Tyrode’s solution consisted of 145 mM NaCl, 5 mM KCl, MgCl2, 2 mM CaCl2, 20 mM D-Glucose, and 10 mM HEPES (for pH 7.4). All other extracellular patch-clamp solutions contained 160 mM NMDG-Cl, 2 mM CaCl2, and the following buffers: 10 mM HEPES (for pH 7.4), 10 mM MES (for pH 6.5-5.5), 10 mM CHES for pH 10, and 10 mM HomoPIPES for (pH 5.0). pH adjusted with HCl. When adding compounds to extracellular solutions, the concentration of DMSO in solution was never higher than 0.3%. The pipette contained intracellular solution made up of 120 mM Cs-aspartate, 15 mM CsCl, 2 mM Mg-ATP, 5 mM EGTA, 2.4 mM CaCl2 (100 nM free Ca^2+), and 10 mM HEPES with a pH of 7.3. All extracellular solution osmolarity was adjusted to 300 mOsm and intracellular osmolarity was adjusted to 290 mOsm.
All data are presented as mean ± SEM unless otherwise noted, and each data point represents an independent replicant. Inhibition of compounds was quantified as ((I2peak-I1)/(I2peak))*100, where I1 is the current immediately before wash-off and I2peak is the maximum recovered current (Supplementary Fig. 2). Hill coefficients were determined by the following equation: Y = Bmax*X^h/(Kd^h + X^h). Absolute IC50 was determined by the following equation: Fifty = (Top + Baseline)/2 Y = Bottom + (Top-Bottom)/(1 + ((Top-Bottom)/(Fifty-Bottom) − 1)*(AbsoluteIC50/X)^HillSlope). pH50 curves (Fig. 6G inset) were determined using the following equation: Y = Bottom + (Top-Bottom)/(1 + (EC/X)^HillSlope) where EC = EC50 control. Graphs with electrophysiological data were made in Graphpad Prism 10 (Graphpad Software Inc). […]

`C=C(C)COc1ccccc1NC(=O)c1nc[nH]c1C` [C2.2] was tested, and the Hill coefficient was 1.22, the “Shift of IC50 compared with WT” value was ~ 10 fold and the “inhibition of acid-evoked current, single cells” value (from here on “inhibition … single cells”) (C2.2 3 uM, Supp. Fig 5G) was 6.531 and 5.9632 and 6.805 and 3.704. For the same compound, the inhibition at 3 µM (C2.2 3 uM, Supp. Fig 5G, read-out: inhibition of acid-evoked current, single cells) was 5.54%, the “inhibition … single cells” value (C2.2 10 uM, Supp. Fig 5G) was 8.1748 and 9.4295 and 12.133 and 10.612 and the inhibition at 10 µM (C2.2 10 uM, Supp. Fig 5G, read-out: inhibition of acid-evoked current, single cells) was 8.99%. The “inhibition … single cells” value (C2.2 30 uM, Supp. Fig 5G) was 15.885 and 20.063 and 20.497 and 20.983 and 13.0981 and 19.6998, the inhibition at 30 µM (C2.2 30 uM, Supp. Fig 5G, read-out: inhibition of acid-evoked current, single cells) was 23.3% and the inhibition at 100 µM (C2.2 100 uM, Supp. Fig 5G, read-out: inhibition of acid-evoked current, single cells) was 63.2%. For the same compound, the inhibition at 300 µM (C2.2 300 uM, Supp. Fig 5G, read-out: inhibition of acid-evoked current, single cells) was 78.2%, the HillSlope (best-fit, Supp. Fig 5G) was 1.217 and the IC50 (best-fit, Top 100, Bottom 0, Supp. Fig 5G, read-out: AbsoluteIC50) was 82.9 µM. The LogAbsoluteIC50 (best-fit, Supp. Fig 5G) was 1.918 and the IC50 (pH 5.5, read-out: IC50) was 82 µM and 82.9 µM.
In the case of `O=C(/C(=N\O)c1ccccc1)c1ccccc1` [C11, benzil monoxime], the Hill coefficient is reported as 1.57, the “Shift of IC50 compared with WT” value is reported as ~ 2.5 fold and the “inhibition … single cells” value (C11 10 uM, Supp. Fig 5D) is reported as 2.087 and 1.672. For the same compound, the inhibition at 10 µM (C11 10 uM, Supp. Fig 5D, read-out: inhibition of acid-evoked current, single cells) was 1.63%, the “inhibition … single cells” value (C11 30 uM, Supp. Fig 5D) was 9.463 and 7.048 and 7.021 and the inhibition at 30 µM (C11 30 uM, Supp. Fig 5D, read-out: inhibition of acid-evoked current, single cells) was 7.27%. The “inhibition … single cells” value (C11 100 uM, Supp. Fig 5D) was 29.7468 and 24.8826 and 21.3974 and 29.1115, the inhibition at 100 µM (C11 100 uM, Supp. Fig 5D, read-out: inhibition of acid-evoked current, single cells) was 29.4% and the “inhibition … single cells” value (C11 200 uM, Supp. Fig 5D) was 48.5849. For the same compound, the inhibition at 200 µM (C11 200 uM, Supp. Fig 5D, read-out: inhibition of acid-evoked current, single cells) was 42.1%, the “inhibition … single cells” value (C11 300 uM, Supp. Fig 5D) was 63.41 and 66.778 and 78.1609 and 62.1622 and 62.7854 and 80.0142 and 64.4878 and the inhibition at 300 µM (C11 300 uM, Supp. Fig 5D, read-out: inhibition of acid-evoked current, single cells) was 71.5%. The HillSlope (best-fit, Supp. Fig 5D) was 1.566, the IC50 (best-fit, Top 100, Bottom 0, Supp. Fig 5D, read-out: AbsoluteIC50) was 190 µM and the LogAbsoluteIC50 (best-fit, Supp. Fig 5D) was 2.279. For the same compound, the IC50 (pH 5.5, read-out: IC50) was 190 µM.
